Measured values from US20230405004A1 (NEURORIVE INC, priority 2020, published 2023).

Columns and labels:
[1] = system: 5xFAD mouse; experiment: Morris water maze (MWM) task; type: in vivo; conditions: for Escape latency (Increase or decrease compared to mutated mouse vehicle group): DAY 4; for time spent in the target quadrant (Increase or decrease compared to mutated mouse vehicle group): probe test DAY 5
Description: The 5xFAD mouse used in this experiment was a genetically modified mouse model in which Alzheimer's disease-inducing genes were inserted. Specifically, mice over-expressed both the amyloid precursor protein with the Swedish mutation (K670N, M671L), the Florida mutation […], and the London mutation (V717I) and PS1 with the M146L and L286V mutations. The 5xFAD mouse model is the most widely used in Alzheimer's disease studies.
A Morris water maze (MWM) task was conducted to examine an effect on improving cognitive function depending on the administration of the complex composition of the present invention. The experimental equipment was comprised of a circular water tank (150 cm in diameter and 45 cm in height) filled with water having a temperature of about 22±2° C., an escape platform (10 cm in diameter and 30 cm in height), and 4 markers attached to the wall that allows the mouse to remember the location of the escape platform. The above markers remained unchanged throughout the test period. The escape platform was placed 1 cm above the water surface or 0.5 to 1.5 cm below the water surface according to the purpose of the experiment. When placed under the water surface, the water was made opaque with white water-based paint so that the escape platform was not visible to the eye. The Morris water maze was divided into four quadrants, i.e., northeast (NE), northwest (NW), southeast (SE) and southwest (SW), wherein the escape platform was placed in the center of the southwest quadrant, and the mouse started randomly from one of the others.
The escape platform was made visible on Learning DAY 0. Each mouse was trained to recognize that it was possible to escape when they swam toward the escape platform and landed thereon. On DAY 1-4, the escape platform was hidden by being placed under the water, and then the mice learned the position of the escape platform. The time limit was set to 60 seconds, and if the mouse found the escape platform within 60 seconds, it was allowed to stay on the escape platform for 5 seconds. The mice were then immediately transferred to the breeding cage. On DAY 5, the probe test was performed without the escape platform. The probe test was performed by placing the mouse in the farthest part of the quadrant where the escape platform was placed during the training day, and 60 seconds was set as the time limit. The indexes of cognitive function include the escape latency which is the time required for the mouse to find the escape platform and the time spent in the quadrant where the escape platform was placed. It was judged that the shorter the time it takes to escape (FIG. 2A) and the longer the mouse stays in the quadrant where the escape platform was placed (FIG. 2B), the better the memory and learning ability of the mouse.
Then, each group was subjected to oral administration for 4 weeks to perform the experiment.

[2] = system: 5xFAD mouse; experiment: Y-maze test; type: in vivo; conditions: donepezil 2 mg/kg oral
Description: In order to test an improvement effect on short-term working memory ability according to the administration of the complex composition of the present invention, a Y-maze test was performed using the mouse model of the Alzheimer's disease described above. For the experiment, a Y-shaped maze (36 cm in width, 16 cm in length, 15 cm in height) having three arms was used, and the mice started randomly in three arms. The mice were placed in the maze, then the number of times when the center of the mouse body entered each arm and the cases in which the mice entered each arm sequentially were checked. The alternation behavior is defined as consecutive entries in three different arms without overlapping, and spontaneous alternation behavior was calculated by the following equation:
Alternation (%)=(the number of entities into all the 3 arms on consecutive/the number of entirety arms entries−2)×100
Then, each group was subjected to oral administration to perform the experiment.

COc1cc2c(cc1OC)C(=O)C(CC1CCN(Cc3ccccc3)CC1)C2 (stereo not drawn) [Donepezil, donepezil]
Escape latency (Increase or decrease compared to mutated mouse vehicle group) ([1]; donepezil 1 mg/kg oral 4 weeks): −20.15% | time spent in the target quadrant (Increase or decrease compared to mutated mouse vehicle group) ([1]; donepezil 1 mg/kg oral 4 weeks): 51.63% | Escape latency (Increase or decrease compared to mutated mouse vehicle group) ([1]; donepezil 2 mg/kg oral 4 weeks): −33.79% | time spent in the target quadrant (Increase or decrease compared to mutated mouse vehicle group) ([1]; donepezil 2 mg/kg oral 4 weeks): 148.46% | escape latency reduced by, based on the mutant mouse vehicle group ([1]; mutated mouse, donepezil 2 mg/kg alone, stated as reduction): 33.79% | Voluntary alternation behavior (Increase or decrease compared to mutated mouse vehicle group) [2]: 25.15%
